Experiment [1] deals with T1, FAP-expressing human WI-38 fibroblasts (Homo sapiens, UniProt Q12884).
T1 construct: FAP-expressing human WI-38 fibroblasts (ECACC) were cultured in EMEM; host or cells: WI-38 human fibroblasts
The experiment in a line: Competitive FACS binding assay.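 Note: flow cytometry read-out of median Cy5 fluorescence on the cells, plotted versus test compound concentration, with IC50 derived by four-parameter logistic curve fitting.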 In general terms: In flow cytometry, cells or beads pass a laser one at a time.

A further experiment addresses T2, Recombinant human FAP (Homo sapiens, UniProt Q12884).
T2 construct: purchased R&D systems 3715-SE
The experiment in a line: FRET-based FAP protease activity assay. The class given is biochemical.

Where [2] appears, read: competition with 3 nM Cy5-labeled compound, WI-38 fibroblasts, 4° C., 1 hour, read-out: pIC50 Category (FACS) (converted).
The mark [3] stands for this setting: recombinant human FAP, FRET-peptide substrate, 37° C., read-out: pIC50 Category (Activity) (converted).

Read-outs that look alike come from different tables or passages of the source. *1 amine or outer side, *2 acyl side, *3 side chain or, on linkers, in order; H or OH if unused. Where a SMILES comes first, the peptide text is derived from it. Bridges are numbered along the chain shown (N, C = ends). [ ]: non-standard residue; d: D form. The star is where a group is joined. X4 = O=C(O)CN1CCN(CC(=O)O)CCN(CC(=O)NCCCOCCOCCOCCCN*)CCN(CC(=O)O)CC1; X11 = O=C(O)CN1CCN(CC(=O)O)CCN([C@H](CCC(=O)*)C(=O)O)CC1; X2 = O=C1NC(=O)C([*:3])=C1CC[C@H](N[*:1])C(=O)[*:2]; X7 = CN1C(=O)C([*:1])=C([*:2])C1=O; Suc = O=C(CCC(=O)[*:2])[*:1]; Nle = CCCC[C@H](N)C(=O)O; X3 = NCCNCC(CNCCN)C(=O)*; Hexanoyl = CCCCCC(=O)* Bounds are passed on as bounds.

Here are results for ten molecules from patent publication US20240115745A1, “COMPOUNDS COMPRISING A FIBROBLAST ACTIVATION PROTEIN LIGAND AND USE THEREOF” (3B PHARMACEUTICALS GMBH, priority 2021, published 2024).

T2 sequence (Q12884 26-760 limits assumed): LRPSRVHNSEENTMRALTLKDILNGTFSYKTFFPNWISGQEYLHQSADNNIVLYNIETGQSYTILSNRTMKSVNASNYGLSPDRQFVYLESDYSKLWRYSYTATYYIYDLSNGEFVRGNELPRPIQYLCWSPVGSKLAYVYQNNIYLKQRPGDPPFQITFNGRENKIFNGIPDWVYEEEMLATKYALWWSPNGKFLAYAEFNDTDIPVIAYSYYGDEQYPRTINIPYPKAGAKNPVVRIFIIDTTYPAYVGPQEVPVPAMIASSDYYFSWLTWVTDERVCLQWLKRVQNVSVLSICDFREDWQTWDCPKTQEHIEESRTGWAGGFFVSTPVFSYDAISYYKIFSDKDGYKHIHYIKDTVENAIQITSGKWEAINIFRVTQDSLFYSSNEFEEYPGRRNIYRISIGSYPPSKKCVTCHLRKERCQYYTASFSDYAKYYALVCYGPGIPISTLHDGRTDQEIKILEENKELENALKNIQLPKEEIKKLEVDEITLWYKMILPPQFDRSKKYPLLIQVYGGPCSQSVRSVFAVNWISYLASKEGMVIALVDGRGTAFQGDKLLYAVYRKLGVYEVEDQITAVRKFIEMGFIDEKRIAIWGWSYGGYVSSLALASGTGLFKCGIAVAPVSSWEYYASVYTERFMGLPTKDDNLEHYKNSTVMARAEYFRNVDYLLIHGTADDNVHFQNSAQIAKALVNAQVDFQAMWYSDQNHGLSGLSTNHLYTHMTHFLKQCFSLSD
T1 sequence (Q12884 whole entry): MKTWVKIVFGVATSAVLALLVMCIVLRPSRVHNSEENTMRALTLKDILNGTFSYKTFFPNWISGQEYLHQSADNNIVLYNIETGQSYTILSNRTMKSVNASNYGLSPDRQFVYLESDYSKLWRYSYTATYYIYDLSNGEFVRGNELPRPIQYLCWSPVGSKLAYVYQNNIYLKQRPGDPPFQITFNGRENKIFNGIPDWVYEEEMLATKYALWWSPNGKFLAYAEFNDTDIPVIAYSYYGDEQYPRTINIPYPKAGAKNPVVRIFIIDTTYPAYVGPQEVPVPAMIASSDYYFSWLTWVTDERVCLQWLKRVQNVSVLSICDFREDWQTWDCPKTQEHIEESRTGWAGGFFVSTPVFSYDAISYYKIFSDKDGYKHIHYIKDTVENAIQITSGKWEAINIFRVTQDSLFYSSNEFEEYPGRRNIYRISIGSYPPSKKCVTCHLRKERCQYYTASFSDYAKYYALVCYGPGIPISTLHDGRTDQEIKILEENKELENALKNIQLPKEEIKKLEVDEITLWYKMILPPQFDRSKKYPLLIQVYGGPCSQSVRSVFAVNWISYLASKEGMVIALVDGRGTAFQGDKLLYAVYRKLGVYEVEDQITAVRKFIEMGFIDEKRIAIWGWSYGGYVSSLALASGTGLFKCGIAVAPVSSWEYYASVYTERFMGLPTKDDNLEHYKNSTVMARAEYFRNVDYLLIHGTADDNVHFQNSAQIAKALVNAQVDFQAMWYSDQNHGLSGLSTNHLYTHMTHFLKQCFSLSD

Turning to `CCCC[C@H](NC(=O)CCC(=O)NCCCOCCOCCOCCCNC(=O)CN1CCN(CC(=O)O)CCN(CC(=O)O)CCN(CC(=O)O)CC1)C(=O)N[C@H]1CSC2=C(SC[C@@H](C(=O)N[C@@H](CC(=O)O)C(N)=O)NC(=O)[C@H](Cc3ccccc3)NC(=O)[C@H](CCC(N)=O)NC(=O)[C@H]([C@@H](C)O)NC(=O)[C@@H]3CCCN3C(=O)[C@@H]3CCCN3C1=O)C(=O)N(C)C2=O` [Compound 2016, DOTA-Ttds-Nle-[Cys(mli(Me))-Pro-Pro-Thr-Gln-Phe-Cys]-Asp-NH2] ({X4-Suc}-[Nle]CPPTQFCD-NH2; linker 2-8 via X7), the IC50 (in experiment [1] (setting [2]); on Recombinant human FAP (setting [3])) was below 100 nM in each case.
Regarding `CCCCCC(=O)N[C@H]1CSC2=C(SC[C@@H](C(=O)N[C@@H](CC(=O)O)C(N)=O)NC(=O)[C@H](Cc3ccccc3)NC(=O)[C@H](CCC(N)=O)NC(=O)[C@H]([C@@H](C)O)NC(=O)[C@@H]3CCCN3C(=O)[C@@H]3CCCN3C1=O)C(=O)N(CCCOCCOCCOCCCNC(=O)CN1CCN(CC(=O)O)CCN(CC(=O)O)CCN(CC(=O)O)CC1)C2=O` [Compound 2017, Hex-[Cys(mli(DOTA-Ttd))-Pro-Pro-Thr-Gln-Phe-Cys]-Asp-NH2] (HELM PEPTIDE1{[CCCCCC(=O)[*:2]].C.P.P.T.Q.F.C.D.[am]}|CHEM1{[O=C(O)CN1CCN(CC(=O)O)CCN(CC(=O)NCCCOCCOCCOCCCN2C(=O)C([*:1])=C([*:2])C2=O)CCN(CC(=O)O)CC1]}$PEPTIDE1,CHEM1,2:R3-1:R1|PEPTIDE1,CHEM1,8:R3-1:R2$$$V2.0), the IC50 (in experiment [1]; at Recombinant human FAP) was below 100 nM throughout.
As to `CCCCCC(=O)N[C@H]1CSC2=C(SC[C@@H](C(=O)N[C@@H](CC(=O)O)C(N)=O)NC(=O)[C@H](Cc3ccccc3)NC(=O)[C@H](CCC(N)=O)NC(=O)[C@H]([C@@H](C)O)NC(=O)[C@@H]3CCCN3C(=O)[C@@H]3CCCN3C1=O)C(=O)N(CCCC(=O)CN1CCN(CC(=O)O)CCN(CC(=O)O)CCN(CC(=O)O)CC1)C2=O` [Compound 2018, Hex-[Cys(mli(DOTA-Eda))-Pro-Pro-Thr-Gln-Phe-Cys]-Asp-NH2] (HELM PEPTIDE1{[CCCCCC(=O)[*:2]].C.P.P.T.Q.F.C.D.[am]}|CHEM1{[O=C(O)CN1CCN(CC(=O)O)CCN(CC(=O)CCCN2C(=O)C([*:1])=C([*:2])C2=O)CCN(CC(=O)O)CC1]}$PEPTIDE1,CHEM1,2:R3-1:R1|PEPTIDE1,CHEM1,8:R3-1:R2$$$V2.0), the IC50 (in experiment [1]; on Recombinant human FAP) was below 100 nM throughout.
As to `CCCCCC(=O)N[C@H]1CSC2=C(SC[C@@H](C(=O)O)NC(=O)[C@H](Cc3ccccc3)NC(=O)[C@H](CCC(N)=O)NC(=O)[C@H]([C@@H](C)O)NC(=O)[C@@H]3CCCN3C(=O)[C@@H]3CCCN3C1=O)C(=O)N(CCCOCCOCCOCCCNC(=O)CN1CCN(CC(=O)O)CCN(CC(=O)O)CCN(CC(=O)O)CC1)C2=O` [Compound 2019, Hex-[Cys(mli(DOTA-Ttd))-Pro-Pro-Thr-Gln-Phe-Cys]-OH], the IC50 (in experiment [1] (setting [2]); on Recombinant human FAP (setting [3])) was below 100 nM in each case.
With `CCCCCC(=O)N[C@H]1CSC2=C(SC[C@@H](C(=O)N[C@@H](CC(=O)O)C(N)=O)NC(=O)[C@H](Cc3ccccc3)NC(=O)[C@H](CCC(=O)O)NC(=O)[C@H]([C@@H](C)O)NC(=O)[C@@H]3CCCN3C(=O)[C@@H]3CCCN3C1=O)C(=O)N(CCCOCCOCCOCCCNC(=O)CN1CCN(CC(=O)O)CCN(CC(=O)O)CCN(CC(=O)O)CC1)C2=O` [Compound 2020, Hex-[Cys(mli(DOTA-Ttd))-Pro-Pro-Thr-Glu-Phe-Cys]-Asp-NH2] (HELM PEPTIDE1{[CCCCCC(=O)[*:2]].C.P.P.T.E.F.C.D.[am]}|CHEM1{[O=C(O)CN1CCN(CC(=O)O)CCN(CC(=O)NCCCOCCOCCOCCCN2C(=O)C([*:1])=C([*:2])C2=O)CCN(CC(=O)O)CC1]}$PEPTIDE1,CHEM1,2:R3-1:R1|PEPTIDE1,CHEM1,8:R3-1:R2$$$V2.0), the IC50 (in experiment [1] (setting [2]); on Recombinant human FAP (setting [3])) was below 100 nM each time.
For the molecule `CCCC[C@H](NC(=O)CCC(=O)NCCCOCCOCCOCCCNC(=O)CC[C@H](C(=O)O)N1CCN(CC(=O)O)CCN(CC(=O)O)CC1)C(=O)N[C@H]1CSC2=C(SC[C@@H](C(=O)NCCC(=O)O)NC(=O)[C@H](Cc3ccccc3)NC(=O)[C@H](CCC(N)=O)NC(=O)[C@H]([C@@H](C)O)NC(=O)[C@@H]3CCCN3C(=O)[C@@H]3CCCN3C1=O)C(=O)NC2=O` [Compound 2021, NODAGA-Ttds-Nle-[Cys(mli)-Pro-Pro-Thr-Gln-Phe-Cys]-Bal-OH], the IC50 (in experiment [1] (setting [2]); on Recombinant human FAP (setting [3])) was below 100 nM each time.
For the molecule `CCCC[C@H](NC(=O)CCC(=O)NCCCOCCOCCOCCCNC(=O)C(CNCCN)CNCCN)C(=O)N[C@H]1CSC2=C(SC[C@@H](C(=O)NCCC(=O)O)NC(=O)[C@H](Cc3ccccc3)NC(=O)[C@H](CCC(N)=O)NC(=O)[C@H]([C@@H](C)O)NC(=O)[C@@H]3CCCN3C(=O)[C@@H]3CCCN3C1=O)C(=O)NC2=O` [Compound 2022, N4Ac-Ttds-Nle-[Cys(mli)-Pro-Pro-Thr-Gln-Phe-Cys]-Bal-OH], the IC50 (in experiment [1] (setting [2]); at Recombinant human FAP (setting [3])) was below 100 nM throughout.
As for `CCCCCC(=O)N[C@H]1CSC2=C(CC[C@@H](C(=O)N[C@@H](CC(=O)O)C(=O)N[C@@H](CCCCNC(=O)CC[C@H](C(=O)O)N3CCN(CC(=O)O)CCN(CC(=O)O)CC3)C(N)=O)NC(=O)[C@H](Cc3ccccc3)NC(=O)[C@H](CCC(N)=O)NC(=O)[C@H]([C@@H](C)O)NC(=O)[C@@H]3CCCN3C(=O)[C@@H]3CCCN3C1=O)C(=O)NC2=O` [Compound 2023, Hex-[Cys(mli)-Pro-Pro-Thr-Gln-Phe-Cys]-Asp-Lys(NODAGA)-NH2] (Hexanoyl-CPPTQF[X2]DK(X11)-NH2; thioether 1-7), the IC50 (in experiment [1] (setting [2]); on Recombinant human FAP (setting [3])) was below 100 nM in each case.
Regarding `CCCCCC(=O)N[C@H]1CSC2=C(CC[C@@H](C(=O)N[C@@H](CC(=O)O)C(=O)N[C@@H](CCCCNC(=O)C(CNCCN)CNCCN)C(N)=O)NC(=O)[C@H](Cc3ccccc3)NC(=O)[C@H](CCC(N)=O)NC(=O)[C@H]([C@@H](C)O)NC(=O)[C@@H]3CCCN3C(=O)[C@@H]3CCCN3C1=O)C(=O)NC2=O` [Compound 2024, Hex-[Cys(mli)-Pro-Pro-Thr-Gln-Phe-Cys]-Asp-Lys(N4Ac)-NH2] (Hexanoyl-CPPTQF[X2]DK(X3)-NH2; thioether 1-7), the IC50 (in experiment [1] (setting [2]); at Recombinant human FAP (setting [3])) was below 100 nM in each case.
`CCCCCC(=O)N[C@H]1CSC2=C(SC[C@@H](C(=O)N[C@@H](CC(=O)O)C(N)=O)NC(=O)[C@H](Cc3ccccc3)NC(=O)[C@H](CCC(N)=O)NC(=O)[C@H]([C@@H](C)O)NC(=O)[C@@H]3CCCN3C(=O)[C@@H]3CCCN3C1=O)C(=O)N(CCCOCCOCCOCCCNC(=O)C(CNCCN)CNCCN)C2=O` [Compound 2026, Hex-[Cys(mli(N4Ac-Ttd))-Pro-Pro-Thr-Gln-Phe-Cys]-Asp-NH2] (HELM PEPTIDE1{[CCCCCC(=O)[*:2]].C.P.P.T.Q.F.C.D.[am]}|CHEM1{[NCCNCC(CNCCN)C(=O)NCCCOCCOCCOCCCN1C(=O)C([*:1])=C([*:2])C1=O]}$PEPTIDE1,CHEM1,2:R3-1:R1|PEPTIDE1,CHEM1,8:R3-1:R2$$$V2.0): the IC50 (in experiment [1]; at Recombinant human FAP) was below 100 nM each time.
